Counter-ions that a name gives are not always drawn.

The test system of assay [1] is EGF receptor tyrosine kinase. The settings on record: Fry et al., Science, 1994, 265, 1093; cited from earlier work.
The test system of assay [2] is liver hepatocyte growth caused by the administration of the growth factor TGFα. Nature of the assay: Test (c): in vivo inhibition of TGFα-stimulated liver hepatocyte growth in male rats (BrdU uptake). The settings on record: Rattus norvegicus, usually oral, TGFα 400 μg/kg subcutaneously, approximate ED50, BrdU uptake. As to the method: (c) An in vivo assay in a group of male rats which determines the ability of a test compound (usually administered orally as a ball-milled suspension in 0.5% polysorbate) to inhibit the stimulation of liver hepatocyte growth caused by the administration of the growth factor TGFα (400 μg/kg subcutaneously, usually dosed twice, 3 and 7 hours respectively after the administration of the test compound).
In a control group of rats, the administration of TGFα causes on average a 5-fold stimulation of liver hepatocyte growth.
Cell-growth in the control and test animals is determined as follows:
On the morning of the day after the dosing of the test compound (or 0.5% polysorbate in the control group), the animals are dosed with bromodeoxyuridine (BrdU; 100 mg/kg intraperitoneally). The animals are killed four hours later and the livers are excised.
Further tests were carried out using a range of doses of the test compounds to allow the calculation of an approximate ED50 value for the inhibition of liver hepatocyte proliferation as determined by inhibition of the uptake of BrdU.

Assay [3] deals with T1, EGF receptor tyrosine kinase (Homo sapiens, UniProt P00533).
T1 construct: Receptor tyrosine kinase was obtained in partially purified form from A-431 cells; endogenous in cells; host or cells: A-431 cells (human vulval carcinoma)
Description: Test (a): in vitro inhibition of the enzyme EGF receptor tyrosine kinase (partially purified from A-431 cells). It is filed as biochemical. The settings on record: EGF receptor tyrosine kinase from A-431 cells. As to the method:
(a) An in vitro assay which determines the ability of a test compound to inhibit the enzyme EGF receptor tyrosine kinase. Receptor tyrosine kinase was obtained in partially purified form from A-431 cells (derived from human vulval carcinoma) by procedures related to those described by Carpenter et al., J. Biol. Chem., 1979, 254, 4884, Cohen et al., J. Biol. Chem., 1982, 257, 1523 and by Braun et al., J. Biol. Chem., 1984, 259, 2051.
A-431 cells were grown to confluence using Dulbecco's modified Eagle's medium (DHEM) containing 5% fetal calf serum (FCS). The obtained cells were homogenised in a hypotonic borate/EDTA buffer at pH 10.1. The homogenate was centrifuged at 400 g for 10 minutes at 0°-4° C. The supernatant was centrifuged at 25,000 g for 30 minutes at 0°-4° C. The pelleted material was suspended in 30 mM Hepes buffer at pH 7.4 containing 5% glycerol, 4 mM benzamidine and 1% Triton X-100, stirred for 1 hour at 0°-4° C., and recentrifuged at 100,000 g for 1 hour at 0°-4° C. The supernatant, containing solubilised receptor tyrosine kinase, was stored in liquid nitrogen.
For test purposes 40 μl of the enzyme solution so obtained was added to a mixture of 400 μl of a mixture of 150 mM Hepes buffer at pH 7.4, 500 μM sodium orthovanadate, 0.1% Triton X-100, 10% glycerol, 200 μl water, 80 μl of 25 mH DTT and 80 μl of a mixture of 12.5 mM manganese chloride, 125 mM magnesium chloride and distilled water. There was thus obtained the test enzyme solution.
Each test compound was dissolved in dimethylsulphoxide (DMSO) to give a 50 mM solution which was diluted with 40 mM Hepes buffer containing 0.1% Triton X-100, 10% glycerol and 10% DMSO to give a 500 μM solution. Equal volumes of this solution and a solution of epidermal growth factor (EGF; 20 μg/ml) were mixed.
[γ-^32 P]ATP (3000 Ci/mM, 250 μCi) was diluted to a volume of 2 ml by the addition of a solution of ATP (100 μM) in distilled water. An equal volume of a 4 mg/ml solution of the peptide Arg-Arg-Leu-Ile-Glu-Asp-Ala-Glu-Tyr-Ala-Ala-Arg-Gly in a mixture of 40 mH Hepes buffer at pH 7.4, 0.1% Triton X-100 and 10% glycerol was added.
The test compound/EGF mixture solution (5 μl) was added to the test enzyme solution (10 μl) and the mixture was incubated at 0°-4° C. for 30 minutes. The ATP/peptide mixture (10 μl) was added and the mixture was incubated at 25° C. for 10 minutes. The phosphorylation reaction was terminated by the addition of 5% trichloroacetic acid (40 μl) and bovine serum albumin (BSA; 1 mg/ml, 5 μl). The mixture was allowed to stand at 4° C. for 30 minutes and then centrifuged. An aliquot (40 μl) of the supernatant was placed onto a strip of Whatman p 81 phosphocellulose paper. The strip was washed in 75 mH phosphoric acid (4×10 ml) and blotted dry. Radioactivity present in the filter paper was measured using a liquid scintillation counter (Sequence A). The reaction sequence was repeated in the absence of the EGF (Sequence B) and again in the absence of the test compound (Sequence C).
Receptor tyrosine kinase inhibition was calculated as follows: [formula]
The extent of inhibition was then determined at a range of concentrations of test compound to give an IC50 value.

Assay [4] deals with human naso-pharyngeal cancer cell line KB. Description: Test (b): inhibition of the EGF-stimulated growth of the human naso-pharyngeal cancer cell line KB. The settings on record: 72 h, KB cells, EGF (10 ng/ml), 3 days, MTT. It is filed as cell-based. The method, then:
(b) An in vitro assay which determines the ability of a test compound to inhibit the EGF-stimulated growth of the human naso-pharyngeal cancer cell line KB.
KB cells were seeded into wells at a density of 1×10^4 -1.5×10^4 cells per well and grown for 24 hours in DHEM supplemented with 5% FCS (charcoal-stripped). Cell growth was determined after incubation for 3 days by the extent of metabolism of MTT tetrazolium dye to furnish a bluish colour. Cell growth was then determined in the presence of EGF (10 ng/ml) or in the presence of EGF (10 ng/ml) and a test compound at a range of concentrations. An IC50 value could then be calculated.

Assay [5] concerns human mammary carcinoma which expresses EGF receptor tyrosine kinase. The settings on record: athymic nude mice; Toi et al., 1990; cited from earlier work.
For assay [6], the system named is another carcinoma which does not express EGF receptor tyrosine kinase. The settings on record: Toi et al., 1990; cited from earlier work.

T1 sequence (P00533 25-1210): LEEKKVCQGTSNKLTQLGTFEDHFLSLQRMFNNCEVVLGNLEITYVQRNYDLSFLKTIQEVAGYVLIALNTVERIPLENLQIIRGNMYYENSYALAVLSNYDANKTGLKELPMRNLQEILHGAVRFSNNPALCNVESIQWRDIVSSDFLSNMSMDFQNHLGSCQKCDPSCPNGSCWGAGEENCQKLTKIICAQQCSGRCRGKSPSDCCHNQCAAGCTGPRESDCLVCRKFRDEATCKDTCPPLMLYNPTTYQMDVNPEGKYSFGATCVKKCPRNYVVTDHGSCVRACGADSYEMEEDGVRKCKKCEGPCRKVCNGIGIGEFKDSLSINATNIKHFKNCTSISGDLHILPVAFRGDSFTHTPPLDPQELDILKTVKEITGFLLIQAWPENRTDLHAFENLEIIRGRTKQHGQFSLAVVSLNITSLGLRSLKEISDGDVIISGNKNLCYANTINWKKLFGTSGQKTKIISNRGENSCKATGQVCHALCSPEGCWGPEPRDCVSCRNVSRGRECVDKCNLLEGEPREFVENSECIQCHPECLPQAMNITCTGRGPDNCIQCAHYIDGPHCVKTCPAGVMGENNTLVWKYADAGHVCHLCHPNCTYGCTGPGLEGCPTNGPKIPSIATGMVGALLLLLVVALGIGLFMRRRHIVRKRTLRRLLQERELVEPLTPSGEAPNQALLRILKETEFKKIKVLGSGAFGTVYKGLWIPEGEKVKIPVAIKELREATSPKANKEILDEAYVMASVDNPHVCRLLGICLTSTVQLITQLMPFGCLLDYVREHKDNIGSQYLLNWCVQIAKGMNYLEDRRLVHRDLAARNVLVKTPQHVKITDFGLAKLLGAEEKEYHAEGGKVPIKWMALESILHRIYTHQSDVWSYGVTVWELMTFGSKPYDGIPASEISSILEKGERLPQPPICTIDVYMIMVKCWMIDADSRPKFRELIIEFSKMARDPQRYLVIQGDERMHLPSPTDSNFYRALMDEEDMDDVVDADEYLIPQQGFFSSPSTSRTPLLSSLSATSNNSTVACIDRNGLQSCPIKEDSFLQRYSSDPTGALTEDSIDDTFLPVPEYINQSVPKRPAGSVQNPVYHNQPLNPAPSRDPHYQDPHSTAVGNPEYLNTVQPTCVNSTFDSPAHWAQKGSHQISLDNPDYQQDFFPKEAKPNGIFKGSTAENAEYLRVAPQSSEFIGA

For the compound `COc1cc2ncnc(Nc3cccc(Br)c3)c2cc1OC` [4-(3'-bromoanilino)-6,7-dimethoxyquinazoline], the “inhibitor of EGF receptor tyrosine kinase” value in assay [1] is on record as “highly potent inhibitor”.

A word on the ED50: it is the dose that gives a 50% effect, or the effect in half of the subjects. A lower ED50 goes with greater potency. As usually defined, the IC50 is the concentration needed to halve the response being measured. Read a high IC50 as weaker potency in that assay. `COc1cc2ncnc(Nc3ccc(Sc4ccccc4)c(Cl)c3)c2cc1OC` [4-(3-chloro-4-phenylthioanilino)-6,7-dimethoxyquinazoline] showed a 50% effective dose (ED50) in assay [2] of 12.5 mg/kg. Further, the results for the IC50 in assay [3] and in assay [4] were 80 nM and 1300 nM, respectively.

On to `COc1cc2ncnc(Nc3ccc(Cc4ccccc4)c(Cl)c3)c2cc1OC.I` [4-(4-benzyl-3-chloroanilino)-6,7-dimethoxyquinazoline hydroiodide salt], for which the median effective dose (ED50) in assay [2] was less than 12.5 mg/kg. In addition, the 50% inhibitory concentration (IC50) in assay [3] was found to be 100 nM; in assay [4] it was 1200 nM.

In the case of `COc1cc2ncnc(Nc3ccc(OCc4ccccn4)c(C)c3)c2cc1OCCCN1CCOCC1` [7-methoxy-4-[3-methyl-4-(2-pyridylmethoxy)anilino]-6-(3-morpholinopropoxy)quinazoline], the values for the 50% inhibitory concentration (IC50) in assay [3] and in assay [4] were 450 nM and 2090 nM, respectively.

Consider `COc1cc2ncnc(Nc3ccc(C(=O)c4ccccc4)c(Cl)c3)c2cc1OC.Cl` [4-(4-benzoyl-3-chloroanilino)-6,7-dimethoxyquinazoline hydrochloride salt], for which the median effective dose (ED50) in assay [2] is less than 5 mg/kg. The half-inhibitory concentration (IC50) in assay [3] was 30 nM; in assay [4] it was 380 nM.

In assay [2], `COc1cc2ncnc(Nc3ccc(OCc4ccccn4)c(C)c3)c2cc1OC.Cl.Cl` [6,7-dimethoxy-4-[3-methyl-4-(2-pyridylmethoxy)anilino]quinazoline dihydrochloride salt] yielded a 50% effective dose (ED50) of 5 mg/kg. The IC50 is 40 nM in assay [3] and 930 nM in assay [4].

In assay [2], `COc1cc2ncnc(Nc3ccc(Sc4nccn4C)c(Cl)c3)c2cc1OC` [4-[3-chloro-4-(1-methylimidazol-2-ylthio)anilino]-6,7-dimethoxyquinazolinedihydrochloride salt] displayed an ED50 of less than 12.5 mg/kg. In addition, the half-inhibitory concentration (IC50) in assay [3] came out at 7 nM; in assay [4], 200 nM.

As to `COc1cc2ncnc(Nc3ccc(OCc4ccccn4)c(C)c3)c2cc1OCCCN(C)C` [6-(3-dimethylaminopropoxy)-7-methoxy-4-[3-methyl-4-(2-pyridylmethoxy)anilino]quinazoline], the half-inhibitory concentration (IC50) was found to be 66 nM in assay [3] and 430 nM in assay [4].

For the compound `O=CN/C=C/c1cc(O)ccc1O` [erbstatin], the “growth of transplanted carcinoma expressing EGF receptor tyrosine kinase” value in assay [5] was “specifically attenuates the growth”. For the same compound, the “growth of carcinoma not expressing EGF receptor tyrosine kinase” value in assay [6] was “without effect on the growth”.

(Values after patent US5821246A, “Aniline derivatives” (Zeneca Limited, priority 1994, dated 1998).)
